Experimental data reported in patent publication US10925921B2, “Fermented Pennisetum extract” (Sagittarius Life Science Corp., priority 2016, dated 2021).

What was measured:
Type in all cases: in vivo, BALB/c nu/nu mice
[1] = test system: human lung adenocarcinoma cell line, NCl-H441; experiment: Computed tomography (CT) lung screening assay in orthotopic model; details: docetaxel 2.5 mg/kg, fourth week; tumor group 11.1+/−2.8%
Text: FIGS. 5(A) and (B) show the inhibitory effects of PPE on analysis of tumor volume in orthotopic model. (A) The micro-CT images and quantitative end-points for lung tumor growth. Longitudinal and transverse micro-CT images of tumor growth in control and treatment of PPE. Each tumor scanned by micro-CT was reconstructed to three-dimensional images (axial, sagittal, and coronal), and diameters measured periodically as indicated. Data represent presence of tumor value in each group. (B) The tissue of lung lesions in nude mice. Representative lung tumor formed in different group. Tumors observed in the lungs are indicated with a yellow arrow;
In the orthotopic model of Example 3, the mice were subjected to CT lung screening to detect the tumor size in lung at the fourth week. The tumor accounts for 11.1+/−2.8% of the lung in the tumor group, 10.1+/−3.9% in the 25-PPE group, 9.3+/−1.4% in the 50-PPE group, 7.5+/−2.3% in the 100-PPE group and 8.0+/−1.1% in the docetaxel group (see FIG. 5).

[2] = test system: human lung adenocarcinoma cell line, NCl-H441; experiment: Tumor growth assay in orthotopic lung model, IVIS bioluminescence; details: docetaxel 2.5 mg/kg, from the fourth week
Protocol: FIGS. 3(A) and (B) show the inhibitory effect of PPE on tumor growth of orthotropic lung tumor-bearing BALB/c nude mice. H441-luc were orthotopically injected into the lung of mice at a concentration of 0.8×10^6 cells/70 μL PBS. PPE treatments (three dosages 25, 50, and […].) twice a week by intraperitoneal injection into tumor-bearing animals over a period of 4 weeks. (A) Representative non-invasive bioluminescence images show tumor progression of mice in orthtopic model. (B) Bar graphs were quantified by Living Image analysis software (n=8-10). Data were analyzed by Student's t-test and are shown as mean±SD*P<0.05 compared with control. § P<0.05 compared with week 4 tumor group;
Male BALB/c nu/nu mice were used in the orthotopic model and divided into five groups, control group (5 mice), tumor group (10 mice), three experimental groups (25-PPE, 50-PPE and 100-PPE) (each group for 10 mice) and docetaxel group (8 mice). […]
The mice were injected with the cell solution of human lung adenocarcinoma cell line, NCl-H441, in matrigel (0.8×10^6 cells/70 μL/mice). […] The tumor growth was monitored by Non Invasion In Vivo Imaging System (IVIS).

[3] = test system: human lung adenocarcinoma cell line, NCl-H441; experiment: Survival (Kaplan-Meier) in orthotopic lung tumor-bearing mice; details: docetaxel 2.5 mg/kg b.w., orthotopic model
Protocol: Male BALB/c nu/nu mice were used in the orthotopic model and divided into five groups, control group (5 mice), tumor group (10 mice), three experimental groups (25-PPE, 50-PPE and 100-PPE) (each group for 10 mice) and docetaxel group (8 mice). The mice of the control group and the tumor group were subjected to intraperitoneal injection (i.p.) with vehicle, while 10 mice of each of the experimental groups, 25-PPE group (25 mg/kg of PPE), 50-PPE group (50 mg/kg of PPE) and 100-PPE group (100 mg/kg of PPE), were i.p. administered with 25 mg/kg of PPE, 50 mg/kg of PPE and 100 mg/kg of PPE obtained in Example 1, respectively, and 8 mice of the docetaxel group were administered with 2.5 mg/kg of docetaxel.
The mice were injected with the cell solution of human lung adenocarcinoma cell line, NCl-H441, in matrigel (0.8×10^6 cells/70 μL/mice). Three days after injections, the PPEs at the above-mentioned doses were i.p. administered to the mice twice every two weeks. The tumor growth was monitored by Non Invasion In Vivo Imaging System (IVIS).

CC(=O)O[C@@]12CO[C@@H]1C[C@H](O)[C@@]1(C)C(=O)[C@H](O)C3=C(C)[C@@H](OC(=O)[C@H](O)[C@@H](NC(=O)OC(C)(C)C)c4ccccc4)C[C@@](O)([C@@H](OC(=O)c4ccccc4)[C@H]21)C3(C)C [docetaxel]
tumor share of the lung (CT tumor volume ratio) [1]: 8.0+/−1.1%
tumor bioluminescence (IVIS) [2]: 0.5+/−0.07×10^7 photons/sec
lifespan, Kaplan-Meier cumulative survival analysis [3]: significant (p<0.05) increase in lifespan
